We go through three compounds from BindingDB's records for patent WO2025051920 (Sanofi-Aventis Deutschland, 2025).

Structures are written as SMILES.

In this test the target is T1, Interleukin-23 subunit alpha/receptor (UniProt Q9NPF7+Q5VWK5).
T1 sequence (Q9NPF7 whole entry): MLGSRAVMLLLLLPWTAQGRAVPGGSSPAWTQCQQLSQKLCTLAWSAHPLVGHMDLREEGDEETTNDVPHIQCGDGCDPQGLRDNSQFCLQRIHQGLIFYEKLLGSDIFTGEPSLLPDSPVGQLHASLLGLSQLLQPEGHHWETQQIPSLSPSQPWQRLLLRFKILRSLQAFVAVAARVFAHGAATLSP
T1 sequence (Q5VWK5 whole entry): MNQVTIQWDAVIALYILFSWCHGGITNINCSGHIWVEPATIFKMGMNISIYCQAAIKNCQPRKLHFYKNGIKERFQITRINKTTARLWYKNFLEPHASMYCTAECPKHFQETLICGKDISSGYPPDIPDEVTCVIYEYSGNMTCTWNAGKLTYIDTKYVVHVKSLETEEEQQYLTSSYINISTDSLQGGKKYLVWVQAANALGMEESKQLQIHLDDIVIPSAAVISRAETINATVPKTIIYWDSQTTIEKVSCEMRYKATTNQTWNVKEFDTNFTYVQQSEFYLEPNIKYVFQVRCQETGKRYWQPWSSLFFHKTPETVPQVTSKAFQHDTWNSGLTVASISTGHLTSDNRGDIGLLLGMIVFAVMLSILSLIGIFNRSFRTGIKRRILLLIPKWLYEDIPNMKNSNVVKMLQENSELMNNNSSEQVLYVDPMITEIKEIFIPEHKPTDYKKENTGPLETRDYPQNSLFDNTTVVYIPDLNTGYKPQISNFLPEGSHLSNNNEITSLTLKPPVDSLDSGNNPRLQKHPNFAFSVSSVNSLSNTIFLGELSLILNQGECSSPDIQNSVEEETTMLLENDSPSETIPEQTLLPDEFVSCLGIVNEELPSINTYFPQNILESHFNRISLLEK
Kind of test: ELISA assay for specific human IL-23R inhibitors. An outline of the steps:
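Plates coated overnight at 4 °C with human IL-23 ([…] final) and blocked. Serially diluted peptides added with recombinant human IL-23R-Fc ([…] final), 60 min at room temperature. Bound IL-23R-Fc detected with anti-human IgG1-HRP and fluorogenic peroxidase substrate.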
(In general: ELISA stands for enzyme-linked immunosorbent assay.)

With `COc1ccc(C[C@@H]2NC(=O)[C@H](CCCNC(=N)N)NC(=O)[C@H](CCC(N)=O)NC(=O)[C@H](Cc3c[nH]c4ccccc34)NC(=O)C([C@@H](C)O)NC(=O)[C@H](CC(N)=O)NC(=O)[C@H](NC(C)=O)CCCCNC(=O)CC[C@H](C(=O)N[C@@H](CC(N)=O)C(=O)N[C@@H](CC(N)=O)C(=O)O)NC(=O)C(C)(C)NC(=O)[C@H](Cc3ccc4ccccc4c3)NC2=O)cc1` (stereo partly drawn) [WO2025051920, Example 5], half-maximal inhibition (IC50) was put at 1.95 nM.
Next, `COc1ccc(C[C@@H]2NC(=O)[C@H](CCCNC(=N)N)NC(=O)[C@H](CCC(N)=O)NC(=O)[C@H](Cc3c[nH]c4ccccc34)NC(=O)C([C@@H](C)O)NC(=O)[C@H](CC(N)=O)NC(=O)[C@H](NC(C)=O)CCCCNC(=O)C[C@H](C(=O)N[C@@H](CC(N)=O)C(=O)N[C@@H](CC(N)=O)C(=O)O)NC(=O)C(C)(C)NC(=O)[C@H](Cc3ccc4ccccc4c3)NC2=O)cc1` (stereo partly drawn) [WO2025051920, Example 3]: 1.55 nM.
`COc1ccc(C[C@@H]2NC(=O)[C@H](CCCNC(=N)N)NC(=O)[C@H](CCC(N)=O)NC(=O)[C@H](Cc3c[nH]c4ccccc34)NC(=O)C([C@@H](C)O)NC(=O)[C@H](CC(N)=O)NC(=O)C(NC(C)=O)CCCCNC(=O)C[C@H](C(=O)N[C@@H](CC(N)=O)C(=O)N[C@@H](CC(N)=O)C(=O)O)NC(=O)C(C)(C)NC(=O)[C@H](Cc3ccc4ccccc4c3)NC2=O)cc1` (stereo partly drawn) [WO2025051920, Example 15]: the IC50 (as a rule, the concentration needed to halve the response being measured) turned out to be 1.04 nM.
